The test system of experiment [1] is STAT3 mRNA. Nature of the experiment: STAT3 mRNA by Real-time qPCR. The settings on record: H460, 0–2.5 μM, 8 h. Format: cell-based, human. The protocol:
To explore whether the reduction in total STAT3 protein after DH_31 treatments (as shown in Figure 5B–E) occurs at the mRNA or protein levels, we first investigated mRNA levels using Real-time qPCR. […] To evaluate whether DH_31 affects STAT3 stability, pretreatment with MG132, a potent selective proteasome inhibitor, was performed. H460 cells were pretreated with or without MG132 (10 μM) for 1 h and then cells were either treated with DH_31 for 6 h or left untreated. […] The proteasome can recognize and degrade protein targets that are conjugated by single or poly-ubiquitin molecules. To investigate the ubiquitination level of STAT3 with DH_31 treatments, the ubiquitination level was evaluated using immunoprecipitation and Western blot analysis of the STAT3–ubiquitin complex in the lung cancer cells treated with DH_31 and in untreated cells.
Quantitative Real-time PCR was performed to determine the effect of DH_31 on mRNA levels of STAT3 and EMT-related genes. H460 cells (4.0 × 10^5 cells per well) were seeded in 6-well plates. Following overnight incubation, the cells were treated with different concentrations of DH_31 (0–2.5 μM)) for 8 h at 37 °C. After treatment, total RNA was isolated using the RNeasy kit (Qiagen, Germany) and subsequently subjected to cDNA synthesis using qScript cDNA Supermix (Quanta bio, Beverly, MA, USA), following the manufacturers’ protocols. […]
For orientation: In qPCR the cycle at which signal appears reflects the starting amount.

The test system of experiment [2] is H292 cells. Format: cell-based. Particulars: for apoptosis: 24 h. The method, then:
(§1) Apoptosis is a crucial mechanism of cell death induced by anticancer drugs. We further analyzed the apoptosis induction effect of the potent small molecules, namely DH_28, DH_30, and DH_31. Nuclear morphology detected by the staining with nucleus-specific fluorescence dye Hoechst 33342 and cell-impermeable PI for necrotic detection was performed. Morphologic changes by means of condensed and/or fragmented nuclei were observed after 24 h of treatment (Figure 2D). […] Therefore, DH_31 was selected for further experiments.
(§2) Figure 2 The effect of RT right-half analogs on cytotoxicity in NSCLC and human normal lung epithelial (BEAS-2B) cell lines and apoptotic cell death in NSCLC cells. (A) NSCLC H292 and H460 cells were treated with derivatives of RT right-half analogs for 24 h and analyzed using MTT assay to assess cytotoxicity. (B) IC50 values for H292 and H460 cell lines were calculated. (C) BEAS-2B cells were treated with DH_28, DH_30, DH_31, and TM-(−)-18 for 24 h. The cytotoxic effects were evaluated using an MTT assay, and the IC50 values for BEAS-2B cells were determined. (D) H292 and H460 cells were seeded and treated with 0–10 μM of DH_28, DH_30, and DH_31 for 24 h. Hoechst 33342 and PI were used to stain the cell nuclei. Images were obtained under a fluorescence microscope. (E) The percentages of cell death were calculated based on the stained images in H292 and H460 cells. Data represent the mean ± SD (n = 3). *, **, and *** indicate a statistically significant difference between the treated and the untreated cells at p < 0.05, p < 0.01, and p < 0.001, respectively. TEXT PRINTED IN THE PICTURE: (B) DH_17: IC50 ± SD (μM) H292: 20.50 ± 3.69; IC50 ± SD (μM) H460: > 100 | (B) DH_20: IC50 ± SD (μM) H292: 21.46 ± 3.77; IC50 ± SD (μM) H460: > 100 | (B) DH_23: IC50 ± SD (μM) H292: 17.50 ± 3.08; IC50 ± SD (μM) H460: > 100 | (B) DH_26: IC50 ± SD (μM) H292: 7.18 ± 2.39; IC50 ± SD (μM) H460: > 100 | (B) DH_28: IC50 ± SD (μM) H292: 9.56 ± 1.87; IC50 ± SD (μM) H460: 11.48 ± 1.87 | (B) DH_30: IC50 ± SD (μM) H292: 7.80 ± 2.30; IC50 ± SD (μM) H460: 4.51 ± 0.78 | (B) DH_31: IC50 ± SD (μM) H292: 5.54 ± 1.04; IC50 ± SD (μM) H460: 2.90 ± 0.58 | (B) TM-(–)-18: IC50 ± SD (μM) H292: > 100; IC50 ± SD (μM) H460: 7.89 ± 1.27 | (C) DH_28: BEAS-2B IC50 ± SD (μM): 16.46 ± 2.11 | (C) DH_30: BEAS-2B IC50 ± SD (μM): 5.50 ± 1.70 | (C) DH_31: BEAS-2B IC50 ± SD (μM): 6.51 ± 1.40 | (C) TM-(–)-18: BEAS-2B IC50 ± SD (μM): 7.25 ± 1.25 DOUBTS OF THE COPYIST ABOUT THIS PICTURE: Panel C, DH_28, IC50: small print, 16.46 ± 2.11 is the best reading; 6 could be 8 / Panel C, DH_30, IC50: small print, 5.50 ± 1.70 is the best reading; 5 could be 6 / Panel C, DH_31, IC50: small print, 6.51 ± 1.40 is the best reading; 6 could be 8 or 5 / Panel C, TM-(–)-18, IC50: small print, 7.25 ± 1.25 is the best reading

In experiment [3] the test system is H460 cells. Format: cell-based. The settings on record: 24 h. The protocol: as §1, §2

Read-outs that look alike come from different tables or passages of the source.

This note sets out measurements from article PMC11355573, “A New Renieramycin T Right-Half Analog as a Small Molecule Degrader of STAT3” (Marine Drugs, 2024).

In the case of `COc1c(C)cc2c(c1O)[C@@H]1CN(Cc3ccc4ccccc4c3)[C@@H](C#N)[C@H](C2)N1C` [DH_31, (1R,4R,5S)-10-hydroxy-9-methoxy-8,11-dimethyl-3-(naphthalen-2-ylmethyl)-1,2,3,4,5,6-hexahydro-1,5-epiminobenzo[d]azocine-4-carbonitrile], in experiment [1], the “mRNA expression of STAT3” value is “did not change significantly”. Besides, the apoptosis entry was “significant apoptosis” in experiment [2] (H292, 1 µM) and “significant apoptosis” in experiment [2] (H292, 10 µM). The necrosis result in experiment [2] (H292, 10 µM, 24 h (p < 0.001)) is listed as “Necrosis was detected”; in experiment [3] (H460, 1 µM), “did not cause significant necrosis”; in experiment [3] (H460, 10 µM) it was “did not cause significant necrosis”. In experiment [3] (H460, 10 µM), the apoptotic cell death entry is given as “significant apoptotic cell death”.
